Measurements published in patent US12527862B2, “Bactericidal/permeability increasing protein for use in a method of immunization, preferably as an adjuvant in a method of vaccination” (UNIVERSITÄT REGENSBURG, priority 2018, dated 2026).

How the values were obtained:
BMDCs = assay: Cytokine protein secretion by BMDCs (Luminex); assay type: cell-based, C57BL/6J mice; settings: Zymd 5 μg/ml, bLP 10 nM; Luminex, n>7, 4h (FIG. 3)
Experimental: All methods mentioned in this example were carried out as described in the preceding examples. Cells were stimulated with Zymosan depleted (Zymd, 5 μg/ml) from Invivogen (San Diego, CA, USA) or (R)-Pam3CSK4 (bLP, 10 nM) from EMC Microcollections GmbH (Tübingen, Germany). Protein secretion analysis was performed using the supernatants.
To quantify the interleukin and chemokine protein-level after stimulation with huBPI, Zymd, and (R)-Pam CSK4, a multiplex-system was used and determined by using the Luminex® technology (Austin, TX, USA). The cytokines were captured with anti-mouse capture-antibodies and detected by biotinylated antibodies specific for the respective protein (Table 3). Protein concentrations were calculated using a reconstituted standard curve of the analyzed proteins (SM039, #LMC4031, Lot #1438354; Thermo Fisher Scientific; Standard Mix 1a, #EPX010-20603-901, Lot #111709101, eBioscience).

BPI [1] = target: T1, BPI (Homo sapiens, UniProt P17213); assay: MicroScale Thermophoresis (MST) binding of ligands to BPI; settings: 5 nM labeled protein, 25° C. (FIGS. 5A, 5C, 8A, 8B)
T1 construct: aa32-487 of the huBPI respectively aa28-483 of muBPI; HA signal peptide (N); made in house; host or cells: HEK293T
T1 sequence (P17213 32-487): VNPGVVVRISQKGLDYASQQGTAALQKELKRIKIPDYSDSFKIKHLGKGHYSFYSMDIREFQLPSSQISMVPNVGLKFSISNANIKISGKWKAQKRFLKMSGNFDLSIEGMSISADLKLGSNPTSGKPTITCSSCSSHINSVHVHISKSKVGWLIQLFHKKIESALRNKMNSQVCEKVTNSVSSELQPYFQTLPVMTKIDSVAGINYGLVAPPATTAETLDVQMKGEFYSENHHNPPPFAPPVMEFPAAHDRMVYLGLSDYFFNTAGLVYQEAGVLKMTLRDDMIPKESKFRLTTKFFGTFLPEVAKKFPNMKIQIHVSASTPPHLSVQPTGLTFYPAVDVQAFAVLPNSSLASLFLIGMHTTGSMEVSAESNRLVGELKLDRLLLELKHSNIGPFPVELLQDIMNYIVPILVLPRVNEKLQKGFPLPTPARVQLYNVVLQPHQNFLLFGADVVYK
Experimental: (§1) BPIN (A) and rBPI were labeled with NT647 in PBS pH 7.4 (Monolith NT™ Protein Labeling Kit RED-NHS, NanoTemper Technologies, Munich, Germany). Concentration of labeled protein was determined using the NanoDrop (ThermoScientific, Wilmington, NC, USA) and Bradford assay (Promega, Mannheim, Germany). MST binding experiments were carried out with 5 nM labeled protein in binding buffer (10 mM HEPES pH 7.4, 150 mM NaCl, 0.1% Tween) with 0.196-6,436 nM of Pam3CSK4 (bLP), or 0.61-20,000 nM of LTA SPΔlgt (LTA), or >0.61-20,000 nM WTA SPΔlgt (WTA) at 20%-40% MST power, 20% LED power in premium capillaries on a Monolith NT.115 pico device at 25° C. (NanoTemper Technologies, Munich, Germany). Pam3CSK4, (bLP) was obtained from EMC Microcollections GmbH (Tübingen, Germany), LTA and WTA were prepared as published previously. MST timetraces were recorded, and the temperature jump and thermophoresis or thermophoresis was analyzed. Binding graphs of each independent experiment were normalized to the fraction bound.
(§2) MST was performed as described for example 5. PiLAM and PiLM were ordered from Invivogen (San Diego, CA, USA). BPI binding assays were performed by incubating Streptavidin-coated 96-well plates (Nunc™ Immobilizer™ Streptavidin F96 clear, Thermo Fisher Scientific, Waltham, MA, USA) with LPS biotin (2 μg/ml) in PBS overnight at 23° C. with gentle agitation. After washing with assay buffer (150 mM NaCl, 50 mM HEPES, Sigma Aldrich, Taufkirchen, Germany) containing 0.01% Casein, plates were blocked with 10 g/l BSA (Sigma Aldrich, Taufkirchen, Germany) at 37° C. and washed again. Thereafter, ligands were preincubated with 20 nM BPI in assay buffer containing 1 g/l BSA for 30 min and loaded onto the plates. Bound BPI was detected by murine anti-human BPI monoclonal antibody (Cat.-No. HM2042, Hycult Biotech, Uden, Netherlands) and HRP-conjugated rabbit anti-mouse IgG (Cat.-No. 315-035-048, Dianova, Hamburg, Germany). […] After addition of 1 N HCl, absorbance was measured at 450 nm. Absorbance indicates binding, the higher the absorbance the higher the binding of BPI to the coated well. […]

BPI [2] = assay: as above; design: species or system human; settings: MST, 0.196-6,436 nM Pam3CSK4 (FIG. 5A)
Experimental: as §1, §2

BPI [3] = target: T1, BPI; assay: BPI binding assay on Streptavidin-coated plates (biotinylated LPS or ODN 1826), direct and competitive
Experimental: FIG. 7 depicts the binding of BPI to TLR ligands. […] Competition of binding was assessed for different variants of CpG ODNs ([…]) and the TLR3 agonist Poly(I:C) in ODN 1826 coated plates.
Streptavidin-coated plates were incubated with biotinylated LPS (n=3). Competition of binding was assessed for lipoarabinomannan as exemplified for phosphatidyl-inositol lipoarabinomannan (PiLAM).
MST was performed as described for example 5. PiLAM and PiLM were ordered from Invivogen (San Diego, CA, USA). BPI binding assays were performed by incubating Streptavidin-coated 96-well plates (Nunc™ Immobilizer™ Streptavidin F96 clear, Thermo Fisher Scientific, Waltham, MA, USA) with LPS biotin (2 μg/ml) in PBS overnight at 23° C. with gentle agitation. After washing with assay buffer (150 mM NaCl, 50 mM HEPES, Sigma Aldrich, Taufkirchen, Germany) containing 0.01% Casein, plates were blocked with 10 g/l BSA (Sigma Aldrich, Taufkirchen, Germany) at 37° C. and washed again. Thereafter, ligands were preincubated with 20 nM BPI in assay buffer containing 1 g/l BSA for 30 min and loaded onto the plates. Bound BPI was detected by murine anti-human BPI monoclonal antibody (Cat.-No. HM2042, Hycult Biotech, Uden, Netherlands) and HRP-conjugated rabbit anti-mouse IgG (Cat.-No. 315-035-048, Dianova, Hamburg, Germany). TMB (BD OptEIA™ TMB Substrate Reagent Set, BD Biosciences, Heidelberg, Germany) was used as a substrate for peroxidase. After addition of 1 N HCl, absorbance was measured at 450 nm. Absorbance indicates binding, the higher the absorbance the higher the binding of BPI to the coated well. Preincubation with a BPI ligand inhibits binding in a concentration-dependent manner.

[4] = tested on: bone-marrow derived dendritic cells; assay: Microarray gene expression analysis in BMDCs; assay type: cell-based, C57BL/6J mice; settings: 200 nM huBPI or muBPI, 4 h, microarray (FIG. 2A)
Experimental: All methods mentioned in this example were carried out as described in Example 1. BMDCs were seeded into a tissue-culture-treated 96-well plate in VLE-RPMI 1640 media (10% FCS, 10% Penicillin-Streptomycin, 50 μM β-Mercaptoethanol) and stimulated with 200 nM huBPI or muBPI. 4 h after stimulation, gene expression analysis was performed by microarray analysis (Affymetrix Mouse Gene 2.0 ST, FIGS. 2A and 2B).

(R)-Pam3CSK4 [bLP]
stimulatory effect on the expression of IL-6 (IL-6 level), BPI vs Zymd vs bLP (BMDCs): similar
binding to BPI (MST) (BPI [1]): shown to bind to bLPs
Affinity of BPI to bLP (BPI [2]): within a nanomolar range

ODN 1826
binding of BPI to plate-bound biotinylated ligand (BPI [3]; Streptavidin-coated plates, absorbance 450 nm, n=4 (FIG. 7A)): Binding of BPI to both LPS and CpG ODN was observed

phosphatidyl-inositol lipoarabinomannan [PiLAM]
competition of BPI binding in biotinylated LPS coated plates (BPI [3]; LPS biotin 2 μg/ml, 20 nM BPI, n=3 (FIG. 8C)): binding is conserved

phosphatidyl-inositol lipomannan [PiLM]
binding to BPI (MST) (BPI [1]): Binding of phosphatidyl-inositol lipomannan (PiLM) to BPI is shown

polyinosinic: polycytidylic acid [Poly(I:C)]
competition of BPI binding in ODN 1826 coated plates (BPI [3]; biotinylated ODN 1826, n=3 (FIG. 7B)): competitive binding was present

B1: murine BPI: recombinant murine BPI, aa28-483 of muBPI, expressed in HEK293T cells (protein, listed as Mus musculus)
chain: TDPGFVAMISQKGLDFACQQGVVELQKELQAISVPDFSGVFKIKHLGKGSYEFYSMAVDGFHIPNPKIEMLPSDGLRVFIKDASIKINGKWMSRKNFLKAGGNFELSIQGVSISTDLILGSDSSGHITTICSNCDSHIDSVHIKISGSMLGWLIRLFHRKIETSLKNIIYKKICKIVRDSVSSKLQPYLKTLSVITRVDDVTSVDYSLLAPLTTTNQFLEGQLKGEFFWRGHRDPLPIHPPVMRFVPNGAYMVCMGISDYFFNTEVLAYQQSGTLKMTLGGQLLSNNGRFQLNTDFLRTFLPKVAKMFPSMGVQLLISAPVPVHLSIQPSGLSFNPKLETQAFVVLPNASLVPLFVLGMKTNASLEVDAEENRLVGEMKLGSRWLLELKESKFGPFKVEYLEDVINYLVSTLVLPKINERLRRGFPLPLPAGIRFSHFTFYPYQNFLLLEADLHLI
immunostimulatory effect on BMDCs (gene expression) [4]: shows an immunostimulatory effect on BMDCs
